What is called melting point is the temperature of the solid-liquid transition. Regarding `CC(C)(C)c1ccc(OC(F)(F)F)c(CN[C@H]2CCCN[C@H]2c2ccccc2)c1.Cl`, the melting point lay within 262 to 264 °C.

As to `CC(C)c1ccc(OCC(F)(F)F)c(CN[C@H]2CCCN[C@H]2c2ccccc2)c1.Cl`, the melting point was over 280 °C.

Consider `Cl.FC(F)Oc1ccc(OC(F)F)c(CN[C@H]2CCCN[C@H]2c2ccccc2)c1`, for which the melting point fell in the range of 238 to 239 °C.

On to `CC(C)(C)c1ccc(OC(F)F)c(CN[C@H]2CCCN[C@H]2c2ccccc2)c1.Cl`, for which the melting point is 263 to 264 °C (dec.).

Consider `CC(C)Oc1ccc(OC(F)(F)F)cc1CN[C@H]1CCCN[C@H]1c1ccccc1.Cl`, for which the melting point is 245 to 246 °C (dec.).

Regarding `CCOc1ccc(OC(F)(F)F)cc1CN[C@H]1CCCN[C@H]1c1ccccc1.Cl`, the melting point was > 275 °C (dec.).

As for `CC(C)c1ccc(OC(F)F)c(CN[C@H]2CCCN[C@H]2c2ccccc2)c1.Cl`, the melting point is 245 to 247 °C (dec.).

On to `CC(=O)Nc1ccc(OCC(F)(F)F)c(CN[C@H]2CCCN[C@H]2c2ccccc2)c1.Cl`, for which the melting point was over 270 °C.

Compound `Cc1ccc(OC(F)F)c(CN[C@H]2CCCN[C@H]2c2ccccc2)c1.Cl` gave a melting point of over 275 °C.

As to `Cl.FC(F)(F)Oc1ccccc1CN[C@H]1CCCN[C@H]1c1ccccc1`, the melting point was in the range of 231 to 233 °C.

The values above are taken from patent US20030199540A1, “Fluoroalkyoxybenzylamino derivatives of nitrogen containing heterocycles” (priority 1991, published 2003).
